Experimental data published in article PMC5615103 (Toxicology Reports, 2017).
“Also recorded” adds a separate entry of the source. Read-outs that look alike come from different tables or passages of the source. Marks after values point to notes of the source that are not given here.

Assays:
[1] = average plasma maximum concentration; assay type: in vivo, humans; conditions: human
[2] = human plasma, cited from earlier work
[3] = cited from earlier work; for DILI classification (b) positive or negative for DILI: ref Xu et al. [33]; for iDILI/non-iDILI: selected by literature research, ref [30], [4], [8], [31], [32]; for DILI classification (a) LTKB class: Liver Toxicity Knowledge Base, ref Chen et al. [34]; for FDA status: FDA-approved labels, ref DailyMed
[4] = WST-1 dose-response cytotoxicity in HepG2 monoculture; assay type: cell-based, human; conditions: human, HepG2 cells (monoculture)
[5] = test system: HepG2 cells; test: as above; assay type: cell-based, human; conditions: for EC80 (concentration at which 80% of the cells are still viable) / EC50: HepG2, 24 h; for EC80 (concentration at which 80% of the cells are still viable): WST-1; for EC50: Homo sapiens
[6] = WST-1 dose-response cytotoxicity in THP-1 monocytes; assay type: cell-based, human; conditions: human, THP-1 monocytes
[7] = test system: THP-1 monocytes; test: as above; assay type: cell-based, human; conditions: for EC50: Homo sapiens, THP-1, 24 h; for EC80 (concentration at which 80% of the cells are still viable): THP-1 monocytes, 24 h, WST-1
[8] = test system: HepG2 cells; test: HepG2 viability; assay type: cell-based, human; conditions: 3-5 × 10^5 THP-1 monocytes, no stimulus; same concentrations
[9] = test system: HepG2 cells; test: HepG2 viability; assay type: cell-based, human; conditions: 10 ng/mL TNF, 24 h; for synergistic effect (enhanced cellular death) on co-exposure with TNF: HepG2 monoculture, 32 μM TGZ/RGZ, 25 μM TVX/LVX, 125 μM DcL/ASS, 20 μM KC/FC; for change of the TNF-dependent synergistic effect by addition of THP-1 monocytes: co-culture HepG2 + THP-1 monocytes
[10] = test system: HepG2 cells; test: HepG2 monoculture, increasing drug concentrations with or without TNF, WST-1; assay type: cell-based, human; conditions: 24 h; for TNF-dependent synergistic effect at increasing drug concentrations: with vs without 10 ng/mL TNF
[11] = test system: HepG2 cells; test: Morphology of HepG2 cell cultures; assay type: cell-based, human; conditions: 24 h; for alterations in the morphology of HepG2 cell cultures: 25 μM TVX or 125 μM DcL + 10 ng/mL TNF
[12] = test system: HepG2 cells; test: HepG2 viability; assay type: cell-based, human; conditions: 1 μg/mL LPS, 48 h; for enhanced cell death in HepG2 cells on co-exposure with LPS: mono- and co-cultures with THP-1 monocytes, 25 μM TVX/LVX, 20 μM KC/FC; for synergy with LPS in co-culture with THP-1 monocytes: co-culture HepG2 + THP-1 monocytes

| SMILES | Cmax [1] | DILI classification (b) positive or negative for DILI [3] | iDILI/non-iDILI [3] | EC80 (concentration at which 80% of the cells are still viable) [5] | EC50 [5] | EC50 [7] | EC80 (concentration at which 80% of the cells are still viable) [7] | influence of higher THP-1 monocyte number on the effect in co-culture [8] | synergistic effect (enhanced cellular death) on co-exposure with TNF [9] | DILI classification (a) LTKB class [3] | enhanced cell death in HepG2 cells on co-exposure with LPS [12] | FDA status [3] | further results |
| --- | --- | --- | --- | --- | --- | --- | --- | --- | --- | --- | --- | --- | --- |
| CC(=O)Oc1ccccc1C(=O)O [ASS, Acetylsalicylic acid] | 552 µM | negative | Non-iDILI | – | – | – | – | – | – | – | – | – | Cmax ([2]; commonly recommended therapeutic doses, ref Xu et al. [33]): 1.00 µg/mL |
| O=C(O)Cc1ccccc1Nc1c(Cl)cccc1Cl [DcL, Diclofenac] | 744 µM | positive | – | 604 µM | 775 µM | 76 µM | 30 µM | enhanced by higher numbers of immune cells | stronger than in the case of TGZ and KC | Most DILI-concern | – | – | viability at 24 h, 125 μM [4]: ~100%; cytotoxicity / metabolic activity at the used concentration ([5]; HepG2, same concentration as in co-culture experiments, 24 h): no cytotoxicity; also recorded: not affected; viability at 24 h, 125 μM [6]: ~30%; change of the TNF-dependent synergistic effect by addition of THP-1 monocytes [9]: compensated in the co-culture system; doses necessary to elicit enhanced toxicities (onset of synergy with TNF) ([10]; 10 ng/mL TNF): > 50 µM; synergistic effect when co-exposed with TNF ([10]; drug 50 μM, 10 ng/mL TNF): not able to induce a synergistic effect; TNF-dependent synergistic effect at increasing drug concentrations [10]: stronger than those of TGZ and KC; alterations in the morphology of HepG2 cell cultures [11]: pronounced hepatocellular injury; morphology of HepG2 cells ([11]; selected concentration (125 μM), drug alone): morphological changes |
| OC(Cn1cncn1)(Cn1cncn1)c1ccc(F)cc1F [FC, Fluconazole] | 882 µM | positive | – | – | – | – | – | – | – | Most DILI-concern | did not show any relevant effects | – | – |
| CC(=O)N1CCN(c2ccc(OCC3COC(Cn4ccnc4)(c4ccc(Cl)cc4Cl)O3)cc2)CC1 (centres unmarked) [KC, Ketoconazole] | 794 µM | – | iDILI | 18 µM | 24 µM | 12 µM | 7 µM | enhanced by higher numbers of immune cells | – | Most DILI-concern | significantly enhanced cell death | BBW | viability at 24 h, 20 μM [4]: ~80%; viability at 24 h, 20 μM [6]: ~20%; change of the TNF-dependent synergistic effect by addition of THP-1 monocytes [9]: compensated in the co-culture system; synergy with LPS in co-culture with THP-1 monocytes [12]: showed a synergy only in the presence of both; Cmax ([2]; ref Huang et al. [35]): 4.22** μg/mL |
| C[C@H]1COc2c(N3CCN(C)CC3)c(F)cc3c(=O)c(C(=O)O)cn1c23 [LVX, Levofloxacin] | 1580 µM | negative | – | – | – | – | – | – | – | – | did not show any relevant effects | – | – |
| CN(CCOc1ccc(CC2SC(=O)NC2=O)cc1)c1ccccn1 (centres unmarked) [RGZ, Rosiglitazone] | 104 µM | negative | Non-iDILI | – | – | – | – | only negligible effects | – | – | – | – | cytotoxicity at 24 h, 32 µM [6]: 10% |
| Cc1c(C)c2c(c(C)c1O)CCC(C)(COc1ccc(CC3SC(=O)NC3=O)cc1)O2 (centres unmarked) [TGZ, Troglitazone] | 639 µM | positive | iDILI | 34 µM | 40 µM | 42 µM | 27 µM | enhanced at higher THP-1 cell numbers | synergy | Most DILI-concern | – | WDN | viability at 24 h, 32 μM [4]: ~85%; viability at 24 h, 32 μM [6]: ~70% |
| N[C@@H]1[C@H]2CN(c3nc4c(cc3F)c(=O)c(C(=O)O)cn4-c3ccc(F)cc3F)C[C@@H]12 [TVX, Trovafloxacin] | 408 µM | – | iDILI | 100 µM | 370 µM | 60 µM | 23 µM | – | stronger than in the case of TGZ and KC | – | significantly enhanced cell death | WDN | viability at 24 h, 25 μM [4]: ~92%; viability at 24 h, 25 μM [6]: ~76%; synergy with LPS in the HepG2 monoculture ([12]; HepG2 monoculture): showed a synergy; synergy with LPS in co-culture with THP-1 monocytes [12]: not intensified by immune cells; TNF-dependent synergistic effect at increasing drug concentrations [10]: dose-dependently increased; alterations in the morphology of HepG2 cell cultures [11]: pronounced hepatocellular injury |
